# Measurements from patent US11603475B2, “Antifouling article” (I-Tech AB, priority 2017, dated 2023).
# What was measured:
# barnacle cyprid larva = conditions: barnacles; cited from earlier work
# tube worms = conditions: in vivo; cited from earlier work
# algal growth = conditions: in vivo; cited from earlier work
# [1] = stirring
# Protocol: This example investigated the solubility of SELEKTOPE® (I-Tech AB, Mölndal, Sweden) in 1,4-butandiol (Brenntag Nordic AB, Malmö, Sweden). Vials were prepared according to Table 1 and left with stirring.
# Vial number 4 was prepared and left with stirring in a same way as vial numbers 1-3.
structure (smiles),measurement,setting,value
"Cc1cccc(C(C)c2c[nH]cn2)c1C (racemic) [Medetomidine, (±)-4,5-[1-(2,3-dimethylphenyl)ethyl)-1H-imidazole]",concentrations that impede larval settlement,barnacle cyprid larva,1 to 10 nM
same,"effect on other hard fouling, such as tube worms",tube worms,shown effect
same,effect on algal growth,algal growth,no effect on algal growth
same,dissolution in vial number 1,"[1]; 97 mg SELEKTOPE in 1.007 g 1,4-butandiol, after 24 hours",all SELEKTOPE® had dissolved
same,dissolution in vial number 2,"[1]; 206 mg SELEKTOPE in 1.012 g 1,4-butandiol, 48 hours after preparation",all SELEKTOPE® material had dissolved
same,dissolution in vial number 4,"[1]; 247 mg SELEKTOPE in 1.009 g 1,4-butandiol, 24 hours after preparation (same at 48 hours)",a few non-dissolved grains remaining
same,dissolution in vial number 3,"[1]; 303 mg SELEKTOPE in 1.024 g 1,4-butandiol, after about 2 hours (same after 24 and 48 hours)",still a lot of non-dissolved SELEKTOPE®
